The test system of this test is C3H kidney allografts in pre-sensitized B6 recipients. Briefly: Pre-sensitized mouse kidney allograft model, RAPA / CFH / FK506, graft survival (Example 2). The class given is in vivo. The text has this: Male C3H (H-2k) and C57BL/6 (B6, H-2b) mice (25-30 g) were used to determine the efficacy of Rapamycin (RAPA) in combination with Factor H (FH) during transplant rejection. C3H mice served as skin graft and kidney donors for pre-sensitization and kidney transplantation. Male C57BL/c (B6) mice were used as recipients. The B6 recipients were pre-sensitized by transplantation of the donor skin grafts, and were subsequently transplanted with kidney allografts between 15 and 20 days after the skin transplantation. […]
Mice were monitored daily for signs of rejection and were euthanized at the end point of the experiment, which was defined as when transplants developed functional deterioration due to severe rejection or on POD60 and POD100. Renal graft function was monitored by plasma creatinine (Cr) blood urea nitrogen (BUN) and hematocrit (Hct) levels by an I-Stat potable analyzer (Abaxis). Circulating donor specific antibodies (DSAs) were determined prior to kidney transplantation and at the endpoint of study by flow cytometry.

The structures appear in SMILES notation. Values joined by “and” are separate entries in the source; they are usually repeats but may differ in a detail not shown here. Equal values may be shown once.

For the compound `CO[C@H]1C[C@@H]2CC[C@@H](C)[C@@](O)(O2)C(=O)C(=O)N2CCCC[C@H]2C(=O)O[C@H]([C@H](C)C[C@@H]2CC[C@@H](O)[C@H](OC)C2)CC(=O)[C@H](C)/C=C(\C)[C@@H](O)[C@@H](OC)C(=O)[C@H](C)C[C@H](C)/C=C/C=C/C=C/1C` [RAPA Alone, Rapamycin], the “Survival” value (individual grafts, pre-sensitized kidney transplant model) is 8 days (2×) and 37 days and 10 days and 11 days and 12 days and 22 days and 14 days and 16 days and 20 days. Moreover, for the setting “per cohort, untreated controls 8 days”, the “MST (mean survival time)” value turned out to be 14 days.
